Two molecules from patent US11020371B2, “Anti-norovirus composition and utilization thereof” (YAIZU SUISANKAGAKU INDUSTRY CO., LTD., priority 2015, dated 2021) can be followed below.

The structures appear in SMILES notation.

Assay [1] relates to Murine norovirus strain S7. In words: Test Example 1: antiviral activity against murine norovirus (virus inactivation, TCID50 on RAW 264.7 cells). Format: cell-based. Conditions: log(TCID50 untreated) - log(TCID50 treated); 60 min reaction; theaflavin purified product and tannic acid 1.5 mg/mL in 25% ethanol-added medium; products A and B stock solution. An excerpt:
[Test Method] […] Murine norovirus strain S7 was obtained and used. (2) Cell A RAW 264.7 cell being a cell line derived from a murine macrophage (ATCC (American Type Culture Collection) TIB-71) was obtained and used. […] The theaflavin-containing purified extract (hereinafter referred to as “theaflavin purified product”) obtained in Production Example 2 was used as a test sample. Moreover, as a test sample for comparison, tannic acid having nonspecific protein binding ability and also reported as to effectiveness against a norovirus, and products A and B being the existing anti-virus products were used. […] The theaflavin purified product was dissolved in dimethyl sulfoxide to be 71.7 mg/mL, and the resultant material was used in the test described below. Tannic acid was dissolved in dimethyl sulfoxide to be 169.9 mg/mL, and the resultant material was used in the test described below. […] A RAW 264.7 cell was monolayer cultured in a well of a 96-well plate, and washed twice with PBS (Phosphate Buffered Saline), and 200 μL of cell maintenance medium (2% fetal bovine serum-containing Dulbecco's Modified Eagle Medium (DMEM)) was added, and the resultant material was used in the test described below. (6) Anti-Virus Test For each test sample, a concentration was adjusted as described below, and the resultant material was applied as a test solution. […]

The next assay deals with feline calicivirus. Nature of the assay: Test Example 3: anti-virus activity against feline calicivirus No. 2 (concentration, with or without 25% ethanol; TCID50 on CRFK cells). Format: cell-based. Conditions: only 25% ethanol, no addition of theaflavin purified product; 60 min reaction.

Method for feline calicivirus: A cytopathic effect (CPE) was observed and a 50% tissue culture infectious dose (TCID50) being an indicator of a virus infectivity titer was calculated by the Behrens-Karber method. Moreover, a virus test solution untreated with the test sample was prepared in the same procedure, and the cytopathic effect was also observed on a cell to which the virus test solution was inoculated to determine a 50% tissue culture infectious dose (log (TCID50 value)). A reduction value of the virus infectivity titer by the test sample was calculated according to the formula (1) described below.
Anti-virus activity of the test sample against feline calicivirus was examined in the same manner as in Test Example 2 except that “(4) Preparation of sample for anti-virus test” and “(6) Anti-virus test” were conducted as described below.
(4) Preparation of Sample for Anti-Virus Test
A theaflavin purified product was dissolved in dimethyl sulfoxide to be 0.717 mg/mL (low concentration), 7.17 mg/mL (medium concentration) and 71.7 mg/mL (high concentration), and the resultant material was used in the test described below.
Then, 5 μL of a feline calicivirus solution and 45 μL of the test solution were mixed, and reacted for 60 minutes.
To the reaction liquid, 450 μL of serum-free Eagle's MEM medium was added to stop the reaction. […]

In the case of `O=C(OC[C@H]1O[C@@H](OC(=O)c2cc(O)c(O)c(OC(=O)c3cc(O)c(O)c(O)c3)c2)[C@H](OC(=O)c2cc(O)c(O)c(OC(=O)c3cc(O)c(O)c(O)c3)c2)[C@@H](OC(=O)c2cc(O)c(O)c(OC(=O)c3cc(O)c(O)c(O)c3)c2)[C@@H]1OC(=O)c1cc(O)c(O)c(OC(=O)c2cc(O)c(O)c(O)c2)c1)c1cc(O)c(O)c(OC(=O)c2cc(O)c(O)c(O)c2)c1` [Tannic acid], the “Reduction value of virus infectivity titer Average” value in assay [1] was found to be 0.5. As for `CCO` [ethanol], the “Average reduction value of virus infectivity titer” value in the assay on feline calicivirus is 0.5.
